From ChEMBL document CHEMBL1133785, “Design, synthesis, and biological evaluation of HIV/FIV protease inhibitors incorporating a conformationally constrained macrocycle with a small P3' residue” (Bioorg Med Chem Lett, 2001)
Starred links: 1 amine or outer side, 2 acyl side, 3 side chain; linkers in the order of their positions; H or OH if unused. Non-standard residues stand in square brackets, D forms with d. Residues, ends and D or L forms follow the SMILES beside them. β3hPhe(2R-OH) = O=C([C@H](O)[C@H](Cc1ccccc1)N[*:1])[*:2]

What was measured:
[1] = target: Human immunodeficiency virus type 1 protease (Human immunodeficiency virus 1, UniProt Q72874, V82A); assay: Inhibitory concentration against TL3-resistant HIV(V82A) mutant
[2] = target: T1, Human immunodeficiency virus type 1 protease (Human immunodeficiency virus 1, UniProt Q72874, V82F); assay: Inhibitory concentration against drug-resistant HIV(V82F) mutant protease
[3] = target: T2, Human immunodeficiency virus type 1 protease (Human immunodeficiency virus 1, UniProt Q72874); assay: Inhibitory concentration against human immunodeficiency virus (HIV) protease
[4] = target: T3, Human immunodeficiency virus type 1 protease (Human immunodeficiency virus 1, UniProt Q72874, G48V); assay: Inhibitory concentration against drug-resistant HIV(G48V) mutant protease
[5] = target: T4, Human immunodeficiency virus type 1 protease (Human immunodeficiency virus 1, UniProt Q72874, F53L); assay: Inhibitory concentration against TL3-resistant HIV(F53L) mutant protease; conditions: pooled result: one value given for 5 cell lines, strains, targets or settings
[6] = tested on: Feline immunodeficiency virus; assay: Inhibitory concentration against Feline immunodeficiency virus (FIV) protease; format: functional
[7] = target: T2, Human immunodeficiency virus type 1 protease; assay: Inhibitory concentration against wild-type human immunodeficiency virus (HIV-WT) protease
[8] = tested on: Feline immunodeficiency virus; assay: Inhibitory concentration against wild-type feline immunodeficiency virus (FIV-WT) protease at a concentration of 200 uM; format: functional
[9] = tested on: Feline immunodeficiency virus; assay: Inhibitory concentration against wild-type feline immunodeficiency virus (FIV-WT) protease; format: functional
[10] = target: T4, Human immunodeficiency virus type 1 protease; assay: Inhibitory concentration against TL3-resistant HIV(F53L) mutant
[11] = target: T2, Human immunodeficiency virus type 1 protease; assay: Inhibitory concentration against TL3-resistant HIV(V771) mutant
[12] = target: T1, Human immunodeficiency virus type 1 protease; assay: Inhibitory concentration against drug-resistant HIV(V82F) mutant
[13] = target: T2, Human immunodeficiency virus type 1 protease; assay: Inhibitory concentration against TL3-resistant HIV(L241) mutant
[14] = target: Human immunodeficiency virus type 1 protease (Human immunodeficiency virus 1, UniProt Q72874, L63P); assay: Inhibitory concentration against TL3-resistant HIV(L63P) mutant
[15] = target: T3, Human immunodeficiency virus type 1 protease; assay: Inhibitory concentration against drug-resistant HIV(G48V) mutant
[16] = target: T2, Human immunodeficiency virus type 1 protease; assay: Inhibitory concentration against TL3-resistant HIV(M461) mutant

Structure (SMILES)	IC50 [1] [nM]	IC50 [3] [nM]	IC50 [6] [nM]	IC50 [7] [nM]	inhibition at 200 µM [8] [%]	IC50 [9] [nM]	also measured
CC(=O)N[C@@H](Cc1c[nH]c2ccccc12)C(=O)N[C@H](C(=O)N[C@@H](Cc1ccccc1)[C@@H](O)C(=O)N[C@H]1Cc2ccc(cc2)OCCCNC(=O)[C@H](C(C)C)NC1=O)C(C)C	10	10	49				IC50 [2]: 30 nM; IC50 [4]: 71 nM; IC50 [5]: 49 nM
COC(=O)[C@H](O)[C@H](Cc1ccccc1)NC(=O)[C@@H](NC(=O)[C@H](Cc1ccc(O)cc1)NC(C)=O)C(C)C				71000	32		
COC(=O)[C@H](O)[C@H](Cc1ccccc1)NC(=O)[C@@H](NC(=O)[C@H](Cc1ccccc1)NC(C)=O)C(C)C				113000	24		
CC(C)[C@@H]1NC(=O)[C@@H](NC(=O)C(=O)C(Cc2ccccc2)NC(=O)OC(C)(C)C)Cc2ccc(cc2)OCCCNC1=O (stereo partly specified)				13		4000	
CC(=O)N[C@@H](Cc1ccccc1)C(=O)N[C@H](C(=O)N[C@@H](Cc1ccccc1)[C@@H](O)C(=O)N[C@H]1Cc2ccc(cc2)OCCCNC(=O)[C@H](C(C)C)NC1=O)C(C)C	12	7	35				IC50 [2]: 32 nM; IC50 [4]: 94 nM; IC50 [5]: 79 nM
COC(=O)[C@H](O)[C@H](Cc1ccccc1)NC(=O)[C@@H](NC(=O)[C@H](Cc1c[nH]c2ccccc12)NC(C)=O)C(C)C				14000		66000	
CC(C)[C@@H]1NC(=O)[C@@H](NC(=O)[C@@H](O)[C@H](Cc2ccccc2)NC(=O)OC(C)(C)C)Cc2ccc(cc2)OCCCNC1=O				100		46000	
CC(C)[C@@H]1NC(=O)[C@@H](NC(=O)[C@H](O)[C@H](Cc2ccccc2)NC(=O)OC(C)(C)C)Cc2ccc(cc2)OCCCNC1=O				630	43		
CC(=O)N[C@@H](Cc1ccc(O)cc1)C(=O)N[C@H](C(=O)N[C@@H](Cc1ccccc1)[C@@H](O)C(=O)N[C@H]1Cc2ccc(cc2)OCCCNC(=O)[C@H](C(C)C)NC1=O)C(C)C	11	6	27				IC50 [10]: 70 nM; IC50 [11]: 70 nM; IC50 [12]: 26 nM; IC50 [13]: 70 nM; IC50 [14]: 70 nM; IC50 [15]: 57 nM; IC50 [16]: 70 nM
CC(=O)N[C@@H](Cc1ccc(O)cc1)C(=O)N[C@H](C(=O)N[C@@H](Cc1ccccc1)[C@@H](O)C(=O)N[C@@H](Cc1ccc(O)cc1)C(=O)N[C@H](C(N)=O)C(C)C)C(C)C (Ac-YV[β3hPhe(2R-OH)]YV-NH2)				212		560	
